From ChEMBL document CHEMBL1140465, “The design and preliminary structure-activity relationship studies of benzotriazines as potent inhibitors of Abl and Abl-T315I enzymes” (Bioorg Med Chem Lett, 2007) come the findings set out here.

Active and inactive are the calls of the source. No cut-off for these calls is given here.

Assay [1] deals with Tyrosine-protein kinase ABL1 (Homo sapiens, UniProt P00519).
The target of assay [2] is Tyrosine-protein kinase ABL1 (Homo sapiens, UniProt P00519, T315I). Description: Inhibition of Abl-T315I mutant.
The test system of assay [3] is BaF3. As to the kind of experiment: Apoptosis inducing activity in Ba/F3 cells assessed as caspase 3 activation after 4 hrs. Type of assay: functional, cell-based. As to conditions: Mus musculus.
For assay [4], the species on record is Homo sapiens. Description: Apoptosis inducing activity in Bcr-Abl-T315I cells assessed as induction of DNA fragmentation at 2 uM after 24 hrs. Type of assay: functional, cell-based.
Assay [5] concerns Bcr-Abl. Description: Apoptosis inducing activity in Bcr-Abl cells assessed as caspase 3 activation after 4 hrs. Type of assay: functional, cell-based. Conditions: Homo sapiens.
For assay [6], the system named is Bcr-Abl. As to the kind of experiment: Apoptosis inducing activity in Bcr-Abl cells assessed as induction of DNA fragmentation at 2 uM after 24 hrs. The assay is classed as functional, cell-based. Conditions: Homo sapiens.
The species named for assay [7] is Homo sapiens. As to the kind of experiment: Apoptosis inducing effect in Bcr-Abl-T315I cells assessed as caspase 3 activation after 4 hrs. The assay is classed as functional, cell-based.
In assay [8] the test system is BaF3. As to the kind of experiment: Blockade of Bcr-Abl-T315I mutant expressed in mouse Ba/F3 cells assessed as inhibition of […] phosphorylation. As to conditions: Homo sapiens. The assay is classed as cell-based.
Assay [9] relates to BaF3. As to the kind of experiment: Blockade of full length human Bcr-Abl expressed in mouse Ba/F3 cells assessed as inhibition of STAT5 phosphorylation. Type of assay: cell-based.
Assay [10] deals with BaF3. Description: Apoptosis inducing activity in Ba/F3 cells assessed as induction of DNA fragmentation at 2 uM after 24 hrs. The assay is classed as functional, cell-based. As to conditions: Mus musculus.
Assay [11] addresses Proto-oncogene tyrosine-protein kinase Src (Homo sapiens, UniProt P12931). As to the kind of experiment: Inhibition of Src.

Sequence of Proto-oncogene tyrosine-protein kinase Src (P12931 2-536 limits assumed): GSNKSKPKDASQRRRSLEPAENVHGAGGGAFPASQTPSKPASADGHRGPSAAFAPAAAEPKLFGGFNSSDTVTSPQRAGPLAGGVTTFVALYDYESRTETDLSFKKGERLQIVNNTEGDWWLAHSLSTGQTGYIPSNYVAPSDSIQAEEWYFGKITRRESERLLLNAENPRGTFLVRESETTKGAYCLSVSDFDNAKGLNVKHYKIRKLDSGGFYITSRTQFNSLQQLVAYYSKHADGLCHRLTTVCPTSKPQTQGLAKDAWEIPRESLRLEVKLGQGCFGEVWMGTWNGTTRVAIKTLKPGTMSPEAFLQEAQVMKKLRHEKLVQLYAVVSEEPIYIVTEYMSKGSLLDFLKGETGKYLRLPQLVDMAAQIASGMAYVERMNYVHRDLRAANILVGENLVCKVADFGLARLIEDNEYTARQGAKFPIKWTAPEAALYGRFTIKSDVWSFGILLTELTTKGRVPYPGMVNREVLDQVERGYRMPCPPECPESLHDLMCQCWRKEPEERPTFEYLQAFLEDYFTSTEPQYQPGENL

As a reminder, the Ki is the dissociation constant of the complex between target and ligand, obtained from inhibition or displacement. Take `Cc1cccc(C)c1-c1cc(C)c2nc(Nc3ccc(OCCN4CCCC4)cc3)nnc2c1`: the Ki in [1] came to 11 nM; in assay [2], 4240 nM.

As for `Cc1cc(-c2cc(O)ccc2Cl)cc2nnc(Nc3ccc(S(=O)(=O)NCCN4CCCC4)cc3)nc12`, the result with BaF3 [3] and with BaF3 [10] was inactive. The outcome in the assay listed under Homo sapiens [4], with Bcr-Abl [5], with Bcr-Abl [6], in the assay listed under Homo sapiens [7], in the assay on BaF3 [8] and in the assay on BaF3 [9] was Active.

Compound `Cc1cc(-c2cc(O)ccc2Cl)cc2nnc(Nc3ccc(OCCN4CCCC4)cc3)nc12` yielded an inhibitory constant (Ki) in assay [11] of 1.3 nM.
